Test results as given in patent US12441726B2, “Compounds and uses thereof” (Foghorn Therapeutics Inc., priority 2020, dated 2025).
One block for each compound: values may come before it.

What was measured:
[1] = molecular target: BRM (Homo sapiens, UniProt P51531); assay: ATPase catalytic activity assay (ADP-Glo), BRM; details: 30 nM BRM, 400 μM ATP; for IC50: BRM ATPase: IC50 (uM)
Experimental: (§1) The ATPase catalytic activity of BRM or BRG-1 was measured by an in vitro biochemical assay using ADP-Glo™ (Promega, V9102). The ADP-Glo™ kinase assay is performed in two steps once the reaction is complete. The first step is to deplete any unconsumed ATP in the reaction. The second step is to convert the reaction product ADP to ATP, which will be utilized by the luciferase to generate luminesce and be detected by a luminescence reader, such as Envision.
(§2) Then following addition of 5 μL of ADP-Glo™ Reagent provided in the kit, the reaction incubates at room temperature for 40 minutes. Then 10 μL of Kinase Detection Reagent provided in the kit is added to convert ADP to ATP, and the reaction incubates at room temperature for 60 minutes. Finally, luminescence measurement is collected with a plate-reading luminometer, such as Envision.

[2] = molecular target: BRG-1 (Homo sapiens, UniProt P51532); assay: ATPase catalytic activity assay (ADP-Glo), BRG-1; details: for Emax: 1 h, read-out: BRG1 Max % Inhibition, ADP-Glo, 30 nM BRG-1, 400 μM ATP
Chain of BRG-1 (P51532 whole entry): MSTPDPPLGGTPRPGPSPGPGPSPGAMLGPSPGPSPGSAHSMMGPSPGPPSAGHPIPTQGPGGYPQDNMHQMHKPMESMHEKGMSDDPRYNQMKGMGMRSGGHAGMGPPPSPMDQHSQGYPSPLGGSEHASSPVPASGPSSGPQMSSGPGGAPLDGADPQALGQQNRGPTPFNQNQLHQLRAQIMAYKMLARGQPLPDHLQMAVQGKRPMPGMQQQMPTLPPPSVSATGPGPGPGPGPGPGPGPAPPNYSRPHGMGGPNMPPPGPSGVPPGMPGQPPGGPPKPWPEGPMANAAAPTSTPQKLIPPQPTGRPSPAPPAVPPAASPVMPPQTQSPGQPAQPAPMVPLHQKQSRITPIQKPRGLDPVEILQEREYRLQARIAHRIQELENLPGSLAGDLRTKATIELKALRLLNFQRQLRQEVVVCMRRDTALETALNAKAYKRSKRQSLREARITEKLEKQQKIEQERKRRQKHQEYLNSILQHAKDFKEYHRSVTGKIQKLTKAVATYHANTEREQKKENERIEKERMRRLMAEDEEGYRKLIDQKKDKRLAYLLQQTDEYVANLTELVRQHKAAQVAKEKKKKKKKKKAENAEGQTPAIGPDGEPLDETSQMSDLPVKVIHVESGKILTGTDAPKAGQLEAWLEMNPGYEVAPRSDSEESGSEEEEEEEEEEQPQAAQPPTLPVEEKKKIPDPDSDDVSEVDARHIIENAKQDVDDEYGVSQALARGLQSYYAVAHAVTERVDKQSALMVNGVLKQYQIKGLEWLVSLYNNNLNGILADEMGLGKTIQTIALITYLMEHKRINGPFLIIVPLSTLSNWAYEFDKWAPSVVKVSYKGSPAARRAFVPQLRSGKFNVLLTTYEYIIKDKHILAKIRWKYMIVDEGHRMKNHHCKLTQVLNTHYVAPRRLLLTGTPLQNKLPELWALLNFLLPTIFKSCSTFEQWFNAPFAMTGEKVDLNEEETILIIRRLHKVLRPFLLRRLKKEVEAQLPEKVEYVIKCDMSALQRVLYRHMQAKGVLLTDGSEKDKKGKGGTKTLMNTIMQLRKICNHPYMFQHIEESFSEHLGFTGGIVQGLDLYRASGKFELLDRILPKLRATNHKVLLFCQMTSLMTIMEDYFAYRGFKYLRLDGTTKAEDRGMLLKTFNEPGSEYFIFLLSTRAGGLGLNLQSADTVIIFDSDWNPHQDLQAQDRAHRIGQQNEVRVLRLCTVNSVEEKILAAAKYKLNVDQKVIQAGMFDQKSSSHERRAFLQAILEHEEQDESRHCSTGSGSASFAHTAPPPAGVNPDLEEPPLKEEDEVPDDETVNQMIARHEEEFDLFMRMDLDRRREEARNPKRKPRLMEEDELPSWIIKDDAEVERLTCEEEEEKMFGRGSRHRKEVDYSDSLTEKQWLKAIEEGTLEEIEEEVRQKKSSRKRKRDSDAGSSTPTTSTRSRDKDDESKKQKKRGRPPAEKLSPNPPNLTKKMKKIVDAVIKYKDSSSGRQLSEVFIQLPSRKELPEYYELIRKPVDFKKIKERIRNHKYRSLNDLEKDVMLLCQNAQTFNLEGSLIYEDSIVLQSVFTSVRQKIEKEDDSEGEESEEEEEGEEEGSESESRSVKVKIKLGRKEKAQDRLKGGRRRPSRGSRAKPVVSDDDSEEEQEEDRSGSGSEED
Experimental: as §1, §2

Chain of BRM (P51531 whole entry): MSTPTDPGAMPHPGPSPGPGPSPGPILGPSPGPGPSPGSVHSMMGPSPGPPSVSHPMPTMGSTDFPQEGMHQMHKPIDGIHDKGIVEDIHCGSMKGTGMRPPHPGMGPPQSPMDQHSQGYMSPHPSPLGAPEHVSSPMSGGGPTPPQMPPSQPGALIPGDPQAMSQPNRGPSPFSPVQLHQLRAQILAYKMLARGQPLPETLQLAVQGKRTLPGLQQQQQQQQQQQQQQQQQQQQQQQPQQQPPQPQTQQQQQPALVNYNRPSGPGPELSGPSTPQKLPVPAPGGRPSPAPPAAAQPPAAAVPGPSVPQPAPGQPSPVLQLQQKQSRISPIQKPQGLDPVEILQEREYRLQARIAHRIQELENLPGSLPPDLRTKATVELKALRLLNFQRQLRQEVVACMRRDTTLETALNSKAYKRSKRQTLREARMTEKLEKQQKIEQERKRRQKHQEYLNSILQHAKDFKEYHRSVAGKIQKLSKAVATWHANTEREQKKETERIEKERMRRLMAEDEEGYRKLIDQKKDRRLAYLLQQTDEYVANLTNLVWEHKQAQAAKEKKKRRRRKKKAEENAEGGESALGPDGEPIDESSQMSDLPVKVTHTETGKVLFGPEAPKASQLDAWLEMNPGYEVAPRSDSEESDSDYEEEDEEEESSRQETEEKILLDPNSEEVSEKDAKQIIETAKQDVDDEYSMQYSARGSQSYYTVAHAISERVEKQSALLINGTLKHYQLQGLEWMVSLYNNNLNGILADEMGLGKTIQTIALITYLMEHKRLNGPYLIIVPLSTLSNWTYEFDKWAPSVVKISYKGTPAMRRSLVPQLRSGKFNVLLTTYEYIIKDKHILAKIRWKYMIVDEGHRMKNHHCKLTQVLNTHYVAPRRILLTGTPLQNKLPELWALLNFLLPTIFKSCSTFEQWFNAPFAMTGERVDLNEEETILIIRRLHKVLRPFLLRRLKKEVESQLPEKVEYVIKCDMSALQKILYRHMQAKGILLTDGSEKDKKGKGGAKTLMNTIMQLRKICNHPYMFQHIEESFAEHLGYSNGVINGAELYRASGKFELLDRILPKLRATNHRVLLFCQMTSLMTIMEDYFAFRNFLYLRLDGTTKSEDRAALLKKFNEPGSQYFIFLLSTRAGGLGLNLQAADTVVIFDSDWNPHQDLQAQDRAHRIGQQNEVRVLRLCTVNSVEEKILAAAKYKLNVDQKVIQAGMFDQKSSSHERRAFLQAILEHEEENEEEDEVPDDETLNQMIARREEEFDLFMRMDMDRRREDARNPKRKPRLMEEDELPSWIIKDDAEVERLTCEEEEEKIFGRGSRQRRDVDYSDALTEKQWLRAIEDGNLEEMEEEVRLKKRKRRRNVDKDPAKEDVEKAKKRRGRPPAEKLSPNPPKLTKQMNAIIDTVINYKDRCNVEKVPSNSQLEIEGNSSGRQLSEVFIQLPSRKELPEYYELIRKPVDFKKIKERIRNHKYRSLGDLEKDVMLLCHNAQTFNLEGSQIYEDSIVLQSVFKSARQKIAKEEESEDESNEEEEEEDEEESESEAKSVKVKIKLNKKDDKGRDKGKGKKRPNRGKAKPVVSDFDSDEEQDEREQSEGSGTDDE

Compound: CN1CCC(c2cccc(-c3ccc4cnc(CNC(=O)c5ccc6c(c5)[C@](C)(C#N)COC6)cc4n3)n2)CC1 [Compound 131]
BRM Max % Inhibition [1]: 83%
IC50 [1]: 0.1 to 0.5 µM
IC50 [2]: > 1000 nM
Emax [2]: 25%

Compound: COCCN1CCN(c2cccc(-c3ccc4cnc(CNC(=O)c5ccc6c(c5)[C@](C)(C#N)COC6)cc4n3)n2)CC1 [Compound 132]
BRM Max % Inhibition [1]: 97%
IC50 [1]: 0.1 to 0.5 µM
IC50 [2]: 500 to 1000 nM
Emax [2]: 71%

Compound: C[C@@]1(C#N)COCc2ccc(C(=O)NCc3cc4nc(-c5cn(C6COC6)nc5CC(F)F)ccc4cn3)cc21 [Compound 136]
BRM Max % Inhibition [1]: 83%
IC50 [1]: 0.1 to 0.5 µM
IC50 [2]: > 1000 nM
Emax [2]: 25%

Compound: CC1(c2nccc(-c3ccc4cnc(CNC(=O)c5ccc6c(c5)[C@](C)(C#N)COC6)cc4n3)n2)COC1 [Compound 137]
BRM Max % Inhibition [1]: 88%
IC50 [1]: 0.1 to 0.5 µM
IC50 [2]: > 1000 nM
Emax [2]: 39%

Compound: COc1nn(C2CC2(F)F)cc1-c1ccc2cnc(CNC(=O)c3ccc4c(c3)[C@](C)(C#N)COC4)cc2n1 (stereo partly shown) [Compound 140]
BRM Max % Inhibition [1]: 94%
IC50 [1]: 0.1 to 0.5 µM
IC50 [2]: 500 to 1000 nM
Emax [2]: 48%

Compound: C[C@@]1(C#N)COCc2ccc(C(=O)NCc3cc4nc(-c5cn(C6COC6)nc5C(F)F)ccc4cn3)cc21 [Compound 145]
BRM Max % Inhibition [1]: 94%
IC50 [1]: 0.1 to 0.5 µM
IC50 [2]: 500 to 1000 nM
Emax [2]: 65%

Compound: COc1cc(N2CCC2)ccc1-c1ccc2cnc(CNC(=O)c3ccc4c(c3)[C@](C)(C#N)COC4)cc2n1 [Compound 146]
BRM Max % Inhibition [1]: 98%
IC50 [1]: 0.1 to 0.5 µM
IC50 [2]: 100 to 500 nM
Emax [2]: 80%

Compound: COc1cc(C(C)(C)C)ccc1-c1ccc2cnc(CNC(=O)c3ccc4c(c3)[C@](C)(C#N)COC4)cc2n1 [Compound 148]
BRM Max % Inhibition [1]: 90%
IC50 [1]: 0.1 to 0.5 µM
IC50 [2]: > 1000 nM
Emax [2]: 32%

Compound: CN1CCCc2c(-c3ccc4cnc(CNC(=O)c5ccc6c(c5)[C@](C)(C#N)COC6)cc4n3)cccc21 [Compound 149]
BRM Max % Inhibition [1]: 95%
IC50 [1]: 0.1 to 0.5 µM
IC50 [2]: 500 to 1000 nM
Emax [2]: 67%

Compound: Cn1cc2c(-c3ccc4cnc(CNC(=O)c5ccc6c(c5)[C@](C)(C#N)COC6)cc4n3)cccc2n1 [Compound 151]
BRM Max % Inhibition [1]: 93%
IC50 [1]: 0.1 to 0.5 µM
IC50 [2]: 500 to 1000 nM
Emax [2]: 56%

Compound: COc1ccc(C)cc1-c1ccc2cnc(CNC(=O)c3ccc4c(c3)[C@](C)(C#N)COC4)cc2n1 [Compound 153]
BRM Max % Inhibition [1]: 87%
IC50 [1]: 0.1 to 0.5 µM
IC50 [2]: > 1000 nM
Emax [2]: 37%

Compound: COc1cc(N2CCOCC2)ccc1-c1ccc2cnc(CNC(=O)c3ccc4c(c3)[C@](C)(C#N)COC4)cc2n1 [Compound 155]
BRM Max % Inhibition [1]: 96%
IC50 [1]: 0.1 to 0.5 µM
IC50 [2]: 500 to 1000 nM
Emax [2]: 67%

Compound: C[C@@]1(C#N)COCc2ccc(C(=O)NCc3cc4nc(-c5ccnc(C6COC6)n5)ccc4cn3)cc21 [Compound 158]
BRM Max % Inhibition [1]: 96%
IC50 [1]: 0.1 to 0.5 µM
IC50 [2]: 500 to 1000 nM
Emax [2]: 75%

Compound: C[C@@]1(F)COCc2ccc(C(=O)NCc3cc4nc(-c5cccc(C6(O)COC6)n5)ccc4cn3)cc21 [Compound 160]
BRM Max % Inhibition [1]: 93%
IC50 [1]: 0.1 to 0.5 µM
IC50 [2]: 500 to 1000 nM
Emax [2]: 62%

Compound: COc1nn(C)cc1-c1cnc2cnc(CNC(=O)c3ccc4c(c3)[C@](C)(F)COC4)cc2n1 [Compound 161]
BRM Max % Inhibition [1]: 94%
IC50 [1]: 0.1 to 0.5 µM
IC50 [2]: 500 to 1000 nM
Emax [2]: 53%

The next lines start with the values.

BRM Max % Inhibition [1]: 100%
IC50 [1]: < 0.1 µM
IC50 [2]: < 100 nM
Emax [2]: 98%
Compound: Cc1cc2c(-c3ccc4cnc(CNC(=O)c5ccc6c(c5)[C@](C)(C#N)COC6)cc4n3)ccc(F)c2n1C [Compound 129]

BRM Max % Inhibition [1]: 97%
IC50 [1]: < 0.1 µM
IC50 [2]: 100 to 500 nM
Emax [2]: 90%
Compound: C[C@@]1(C#N)COCc2ccc(C(=O)NCc3ncc4ccc(-c5cncc(C6CC6)n5)nc4c3F)cc21 [Compound 130]

BRM Max % Inhibition [1]: 102%
IC50 [1]: < 0.1 µM
IC50 [2]: < 100 nM
Emax [2]: 98%
Compound: COCCn1c(C)cc2c(-c3ccc4cnc(CNC(=O)c5ccc6c(c5)[C@](C)(C#N)COC6)cc4n3)cccc21 [Compound 133]

BRM Max % Inhibition [1]: 101%
IC50 [1]: < 0.1 µM
IC50 [2]: < 100 nM
Emax [2]: 97%
Compound: CCc1cc2c(-c3ccc4cnc(CNC(=O)c5ccc6c(c5)[C@](C)(C#N)COC6)cc4n3)cccc2n1C [Compound 134]

BRM Max % Inhibition [1]: 103%
IC50 [1]: < 0.1 µM
IC50 [2]: < 100 nM
Emax [2]: 98%
Compound: Cn1c(C2CC2)cc2c(-c3ccc4cnc(CNC(=O)c5ccc6c(c5)[C@](C)(C#N)COC6)cc4n3)cccc21 [Compound 135]

BRM Max % Inhibition [1]: 101%
IC50 [1]: < 0.1 µM
IC50 [2]: 100 to 500 nM
Emax [2]: 94%
Compound: Cn1cc(F)c2c(-c3ccc4cnc(CNC(=O)c5ccc6c(c5)[C@](C)(C#N)COC6)cc4n3)cccc21 [Compound 138]

BRM Max % Inhibition [1]: 100%
IC50 [1]: < 0.1 µM
IC50 [2]: 100 to 500 nM
Emax [2]: 94%
Compound: Cn1c(C(F)F)cc2c(-c3ccc4cnc(CNC(=O)c5ccc6c(c5)[C@](C)(C#N)COC6)cc4n3)cccc21 [Compound 139]

BRM Max % Inhibition [1]: 100%
IC50 [1]: < 0.1 µM
IC50 [2]: 100 to 500 nM
Emax [2]: 96%
Compound: COCc1cc2c(-c3ccc4cnc(CNC(=O)c5ccc6c(c5)[C@](C)(C#N)COC6)cc4n3)cccc2n1C [Compound 141]

BRM Max % Inhibition [1]: 98%
IC50 [1]: < 0.1 µM
IC50 [2]: 100 to 500 nM
Emax [2]: 88%
Compound: C[C@@]1(C#N)COCc2ccc(C(=O)NCc3cc4cc(-n5cc(F)c(N6CCC6)n5)ccc4nn3)cc21 [Compound 142]

BRM Max % Inhibition [1]: 103%
IC50 [1]: < 0.1 µM
IC50 [2]: 100 to 500 nM
Emax [2]: 89%
Compound: C[C@@]1(F)COCc2ccc(C(=O)NCc3cc4nc(-c5cccc(N6CCCC6=O)n5)cnc4cn3)cc21 [Compound 143]

BRM Max % Inhibition [1]: 102%
IC50 [1]: < 0.1 µM
IC50 [2]: 100 to 500 nM
Emax [2]: 95%
Compound: COc1cc(C)ccc1-c1ccc2cnc(CNC(=O)c3ccc4c(c3)[C@](C)(C#N)COC4)cc2n1 [Compound 144]

BRM Max % Inhibition [1]: 101%
IC50 [1]: < 0.1 µM
IC50 [2]: 100 to 500 nM
Emax [2]: 90%
Compound: C[C@@]1(C#N)COCc2ccc(C(=O)NCc3cc4nc(-c5cccc6c5ccn6CC(F)F)ccc4cn3)cc21 [Compound 147]

BRM Max % Inhibition [1]: 101%
IC50 [1]: < 0.1 µM
IC50 [2]: 100 to 500 nM
Emax [2]: 95%
Compound: C[C@@]1(C#N)COCc2ccc(C(=O)NCc3cc4nc(-c5cn(C6COC6)nc5OC(F)F)ccc4cn3)cc21 [Compound 154]

BRM Max % Inhibition [1]: 99%
IC50 [1]: < 0.1 µM
IC50 [2]: 100 to 500 nM
Emax [2]: 97%
Compound: COc1cc(Cl)ccc1-c1ccc2cnc(CNC(=O)c3ccc4c(c3)[C@](C)(C#N)COC4)cc2n1 [Compound 156]

BRM Max % Inhibition [1]: 99%
IC50 [1]: < 0.1 µM
IC50 [2]: 100 to 500 nM
Emax [2]: 96%
Compound: COc1cc(C(F)F)ccc1-c1ccc2cnc(CNC(=O)c3ccc4c(c3)[C@](C)(C#N)COC4)cc2n1 [Compound 157]

BRM Max % Inhibition [1]: 99%
IC50 [1]: < 0.1 µM
IC50 [2]: 100 to 500 nM
Emax [2]: 95%
Compound: C[C@@]1(C#N)COCc2ccc(C(=O)NCc3cc4nc(-c5cccc6c5ccn6CCO)ccc4cn3)cc21 [Compound 159]
